Legend:
[1] = tested on: human breast cancer cell line MD-MBA-231; experiment: Bioactivity-guided percent apoptosis, Annexin V/Propidium iodide FACS, 48-h incubation; type: cell-based; parameters: key: % of cells (Annexin V/PI FACS); settings: Table E5; Dose 100
Description: Apoptosis was evaluated against human breast cancer cell line MD-MBA-231. Cells were maintained in RPMI 1640 medium (PAA Laboratories GmbH, Teddington Middlesex, UK) supplemented with 10% heat-inactivated tetracycline-free fetal calf serum (PAA Laboratories) and 2 mM L-glutamine, 100 units/ml penicillin, and 100 μg/ml streptomycin (Gibco, Grand Island, N.Y.). Cells were propagated and cultured at 37° C. in a 100% relative humidified atmosphere consisting of 5% C02 and 95% air. Cells were trypsinized with 0.05% Trypsin-0.2% EDTA (w/v) solution.
The bioactivity-guided isolation of the compounds was performed using percent apoptosis in human breast cancer cells (cell line MD-MBA-231) as the reporter. Cells were seeded in a standard 24-well microtiter plate at a density of 1.5×10^4 cells/well in […] tissue culture medium. After a 24-h incubation period cells were treated with individual fractions from the wood of Guaiacum officinale L. Test compounds were mixed in solution using DMSO as vehicle (10 μg extract/1 ml DMSO), at 30 μl. Following a 48-h incubation period, the induction of apoptosis in cell cultures was analyzed by fluorescence-activated cell sorter (FACS Caliber Becton Dickinson, San Jose, Calif.), double staining with Annexin V/Propidium iodide.
Three fractions were chosen for further evaluation based on their apoptotic activity, yields, and simplicity of their HPLC profiles. Fraction 5 was obtained by combining F5 and F6, and fraction 13 by combining fractions 13 and 14. Fraction 8 was not combined with any other. Combinations were based on TLC profiles, (FIG. 17). The percent apoptosis was calculated by using Annexin V/FITC staining and flow cytometry (Table E4).

[2] = tested on: cell line MD-MBA-231; experiment: Cell cycle analysis by DNA content (hypotonic PI staining, flow cytometry); type: cell-based, human; settings: for % events in sub G0 (apoptotic events) / effect on cell populations in S-phase, significance / effect on cell population in G2/M / singlet count: 1.2, 6.0, 30.0 ppm; for % events in sub G0 (apoptotic events) / effect on cell populations in S-phase, significance / % of cells in S-phase / effect on cell population in G2/M / singlet count: 24 h
Description: Twenty-four hours after exposure to compounds, 25×10^4 cells in 1.5 ml cells were simply re-suspended following either the Annexin V/FITC assay or the trypsin procedures. Cells were centrifuged at 1000-x g at room temperature and washed in 0.5 ml of hypotonic staining solution. Cells were kept a minimum of 30 min. at 4° C. in the dark. Samples were usually analyzed by flow cytometry on the same day or at 24 hrs. Resulting DNA distributions were analyzed for the proportion of cells in apoptosis and in G0/G1, S, and G2/M phases of the cell cycle. Singlet events were gated and 10,000-20,000 events were acquired within the gated region. All experiments were repeated at least three times, each in duplicate.
The cell cycle comprises steps that regulate the correct temporal sequence of events that control the growth, reproduction and differentiation of cells. The cell cycle consists of 4 phases: G0/G1, S (DNA synthesis), G2, and M (mitosis). In addition, checkpoints located in the cell cycle transition ensure that cell growth and division occur in response to appropriate signals and environment. When proliferating, if cells are subjected to DNA damage the cell cycle temporarily pauses either at G1, S or G2 phase. Arrest at these checkpoints prevents DNA replication and mitosis in the presence of unrepaired DNA damage and presumably allows time for DNA repair to occur. The proportion of cells that arrest in G1, S or G2 after damage depends on cell type, growth conditions, type of damage and the checkpoints operative in the cells. Shifts in the redistribution of phases of the cell cycle in response to various stimuli can be readily assessed by flow cytometry. DNA content analysis with the use of PI is one of the most common assays. The use of intercalating dyes to measure DNA content are the most common and are usually sufficient to determine relative shifts in the phases of the cell cycle. The hypotonic solution lyses the plasma membrane and prevents many of the aggregate problems associated with fixed cells. Propidium Iodide(PI) passes through permeabilized cell membranes and intercalates with cellular DNA. Therefore, the intensity of the PI signal is directly proportional to DNA content. DNA content experiments determine the percent induction of apoptosis and relative distribution of the cell cycle phases.
The percent of apoptotic cells (cells with fractional DNA content; sub G1 cells) were established by estimating the percentage of events showing up in sub G0. The Sub-G1 method relies on the fact that after DNA fragmentation, there are small fragments of DNA that may be eluted. However in order to be seen in the Sub G1 area, a cell must have lost enough DNA to appear there; so if cells enter apoptosis from the S or G2/M phase of the cell cycle or if there is an aneuploid population undergoing apoptosis, they may not appear in the Sub G1 peak. The number of events in sub G1 (number of nuclear fragments) provides no information on the # of cells undergoing apoptosis.

[3] = tested on: Human breast cancer cell line MB-MDA-231; experiment: Annexin V FITC / PI apoptosis detection by flow cytometry, 24 h; type: cell-based; settings: 24 h; for early stage apoptosis, FITC (+)/PI (−) staining, significance: 1.2, 6.0, 30.0 ppm
Description: Human breast cancer cell line MB-MDA-231 were cultured in Dulbecco's Modified Eagle's medium (DMEM-Sigma, D-5648), supplemented with 10% (heat-inactivated) Fetal Bovine Serum (Atlanta Biologicals, Inc.) and Antibiotic Solution, 100× (Sigma A-9909). Cells were gown at 37° C., at 5-7% CO2, and 95% humidity and were obtained from the American Type Culture Collection (ATCC). Cells were trypsinized with 0.05% Trypsin-0.2% EDTA (w/v) solution (Invitrogen Corporation, Carlsbad, Calif.).
The induction of apoptosis in MB-MDA-231 was analyzed using a well-validated Annexin V FITC apoptosis detection kit (Calbiochem), Darzynkiewicz, 1998. The phosphatidylserine (PS)-specific dye Annexin-V is used to detect apoptotic-specific changes to the organization of phospholipids leading to exposure of PS on the cell surface that precedes nuclear breakdown, DNA fragmentation, and the appearance of most apoptosis-associated molecules. For these studies cells were seeded at 25×10^4 cells/1.5 ml in a 24 well microtiter plate. Cells were allowed to adhere to plates for 24 h, and then exposed to lignans of the present invention at 5-fold dilutions of 30 μl, 6 μl, and 1.2 μl per well for 24 h. Test compounds were mixed in solution using DMSO as vehicle (10 mg extract/1 ml DMSO). Camptothecin was used as a positive control. Following the incubation period 700 μl of suspended cells were transferred to 15 ml conical tubes. Cells that remained adhered to the 24-well plates were gently washed with PBS (137 mM NaCl, 2.7 mM KCL, 4.3 mM Na2HPO4-7H2O, 1.4 mM KH2PO4, adjusted to pH 7.4), trypsinized with 1 ml of solution (0.05% Trypsin—0.2% EDTA [w/v]), and resuspended with the suspended cells/media collected in the 15 ml conical tubes from the previous step. 10 μl of media-binding reagent and 1.25 μl Annexin V-FITC was added to the 15 ml conical tubes containing both the 700 μl of suspended cells and the resuspended cells and incubated at room temperature for 15 min, at 18-24° C., in the dark. Tubes were centrifuged for 5 minutes at 1000×g at room temperature. Media was removed and cells were gently resuspended in 0.5 ml cold 1×binding buffer (dilution; 5× Binding Buffer concentrate 1:5 with dH2O) and placed on ice. 10 μl of propidium iodide was added to each tube. Cells were placed on ice away from light and analyzed immediately by flow cytometry. The dual fluorescence emissions of the respective dyes were detected in cell preparations on a BD-Biosciences FACS Aria high-speed flow cytometer/cell sorter utilizing a quartz cuvette for interrogation. To quantify the Annexin V (FL1 at 518 nm) and propidium iodide (620 nm) signals, apoptosis-induced cells (CPT) stained with FITC only and apoptosis-induced cells (CPT) labeled with only propidium iodide were utilized. Necessary adjustments were made to minimize overlap between these two measurements. Typically, 10,000-20,000 cells were scored for each sample and classified as either viable, early apoptotic, or late apoptotic or necrotic. All experiments were repeated at least three times, each in duplicate.
The principal of the Annexin V/FITC assay is that, Annexin V, an anticoagulant protein, preferentially binds negatively charged phospholipids. Early in the apoptotic process, phospholipid asymmetry is disrupted leading to the exposure of phosphatidylserine (PS) on the outer leaflet of the cytoplasmic membrane. Annexin V binds to the negatively charged calcium-dependent PS. Conjugating FITC to Annexin V with simultaneous propidium iodide (PI) staining allows bivariate analysis of intact cells. Live, healthy cells are double negative, FITC (−)/PI (−), and are seen in the lower left quadrant [A3] of FACS cytograms. Cells that are FITC (+)/PI (−) [A4] are early apoptotic. Cell populations that are advanced apoptotic or necrotic are FITC (+)/PI (+) are located in quadrant [A2]. […]

Row | Compound | Apoptosis [1] | Necrosis [1] | % events in sub G0 (apoptotic events) [2] | effect on cell populations in S-phase, significance [2] | % of cells in S-phase ([2]; 30 ppm) [%] | late stage apoptotic cell death count, FITC (+)/PI (+) ([3]; highest concentration) [%] | effect on cell population in G2/M [2] | singlet count [2] | early stage apoptosis, FITC (+)/PI (−) staining, significance [3] | early apoptosis surpassing that induced by camptothecin ([3]; 30 ppm) [%] | % of cells in S-phase ([2]; 1.2 ppm) [%] | % of cells in S-phase ([2]; 6.0 ppm) [%] | early apoptosis surpassing that induced by camptothecin ([3]; 6.0 ppm) [%] | increase in % events at G2/M over isonectandrin B and nectandrin B ([2]; highest treatment) | increase in % events at G2/M over untreated cells ([2]; highest treatment) [%]
1 | C=C1[C@@H](c2ccc(O)c(OC)c2)O[C@@H](c2ccc(O)c(OC)c2)[C@@]12CCC1=C(C2)[C@@H](c2ccc(O)c(OC)c2)O[C@H]1c1ccc(O)c(OC)c1 [I-a] | 90.12 | 0.82 | strong apoptotic activity at 6.0 ppm, but then declined somewhat at 30 ppm | progressive decrease in % S-phase events with increasing drug concentration | < 3 | – | – | – | – | – | – | – | – | – | –
2 | C=C1[C@@H](c2ccc(O)c(OC)c2)O[C@@H](c2ccc(O)c(OC)c2)[C@]12CCC1=C(C2)[C@@H](c2ccc(O)c(OC)c2)O[C@H]1c1ccc(O)c(OC)c1 [I-b] | 81.37 | 0.41 | significance at 6 and 30 ppm | significant decrease in cell populations at the two highest doses | 4.5 | 63 | – | – | – | – | – | – | – | – | –
3 | COc1cc([C@H]2O[C@@H](c3ccc(O)c(OC)c3)[C@H](C)[C@@H]2C)ccc1O [I-c] | 92.9 | 1.81 | increased and significantly induced apoptotic activity at 30.0 ppm | inhibited cells from entering this stage as well in a concentration-dependent manner | – | – | significant reduction of cells at 6 and 30 ppm | reached minimal levels at 30 ppm | significantly increased | 10 | – | – | – | – | –
4 | COc1cc([C@H]2O[C@@H](c3ccc(O)c(OC)c3)[C@@H](C)[C@H]2C)ccc1O [I-d] | 91.14 | 0.35 | increased and significantly induced apoptotic activity at 30.0 ppm | significantly inhibited cell populations in S-phase at all doses | 0 | – | lowest accumulation at 30 ppm | significance decreases at all doses | significantly increased | 24 | 8.2 | 4.7 | 10 | – | –
5 | COc1cc([C@H]2O[C@H](c3ccc(O)c(OC)c3)[C@@H](C)[C@H]2C)ccc1O [I-e] | – | – | without showing increased number of events in sub G0 | significance at the highest concentration | – | – | significant blockage in G2/M at 30 ppm | approximately equal level of cell death as shown with untreated cells | did not show any significant increases | – | – | – | – | approximately 3 fold | 8
6 | COc1cc(C[C@@H](C)[C@@H](C)Cc2ccc(O)c(OC)c2)ccc1O [I-f] | – | – | no significant increases | did so at 30 ppm | 6 | – | – | – | – | – | – | – | – | – | –

Source: US8563603B2, “Polycyclic compounds and methods related thereto” (Cornell University, priority 2008, dated 2013)
